Consider one molecule from patent US20030152523A1, “Pharmaceutical composition for pulmonary delivery” (priority 2000, published 2003).

Data set [1] can be described thus: In-vitro deposition of BDP from dry powder formulations aerosolised via Rotahaler into a twin stage impinger (TSI). The following applies: TSI at 60 L/min, drug in lower stage of TSI. It counts as physicochemical. The source says:
It was the aim of the current study to attempt to reduce the hydrophobic interaction that exists between BDP particles. Such interaction induces aggregate formation and potentially limits the fine particle dose available for pulmonary delivery. The objectives were to adsorb hydrophilic polymer to individual drug particles and to prepare a model dry powder formulation containing modified drug and lactose. A suspension of 1% w/v BDP in water containing either 0.05% or 0.1% PVA ((MWt 9-10 kDA) was spray dried to produce particles (volume mean diameter (VMD) 4.2 μm as determined by an Aerosizer time of flight particle sizing apparatus obtained from Amherst Process Instruments, Hadley, Mass., USA) suitable for intended delivery to the lung. The micronised drug (VMD […]) or spray dried drug was blended with lactose in a ratio 1:67.5 parts by weight and the resultant formulations filled into gelatin capsules for arosolisation via a Rotahaler device to a twin stage impinger (TSI) operated at 60 L min^−1. The Fine Particle Dose (FPD) (as determined from by the amount of drug reaching the lower stage of the TSI) was increased from 20.2 μg when micronised drug was employed to 46.7 μg when the lower PVA concentration was employed. […] The concentration of BDP was determined from calibration curves constructed using the standard solutions of BDP. […]

Data set [2] in a line: Particle size analysis by laser diffraction (Malvern 2600). Type of data set: physicochemical. The following applies: BDP dispersed in 1% (w/v) span 85 in cyclohexane. On the procedure: 3 Particle Size Analysis:
The particle size of both micronised BDP and spray dried BDP was determined in a liquid medium by laser diffraction, according to an independent model, using a Malvern 2600 laser diffraction sizer (Malvern Instruments, Malvern, Worcs, UK). BDP was measured using a 63 mm lens, after dispersion in a solution of 1% (w/v) span 85 in cyclohexane, saturated with the drug. Each sample was measured in triplicate.

For `CCC(=O)OCC(=O)[C@@]1(OC(=O)CC)[C@@H](C)C[C@H]2[C@@H]3CCC4=CC(=O)C=C[C@]4(C)[C@@]3(Cl)[C@@H](O)C[C@@]21C` [micronised BDP, beclomethasone dipropionate], the “Fine particle dose (FPD) of BDP” value in data set [1] worked out at 20.2 µg. Moreover, the “Volume mean diameter VMD(GSD)” value in data set [2] is reported as 5.18 (1.00) μm.
